The results in this text go back to publication PMC6748385 (Toxicology and applied pharmacology, 2019).

Like-named read-outs stand apart in the source and are kept apart here.

Common to all, as to assay: ERE-luciferase transactivation, HELN-zfER cells
Format in all cases: cell-based

In experiment [1] the target is T1, zfERα (Esr1) (Danio rerio, UniProt P57717).
T1 sequence (P57717 1-569): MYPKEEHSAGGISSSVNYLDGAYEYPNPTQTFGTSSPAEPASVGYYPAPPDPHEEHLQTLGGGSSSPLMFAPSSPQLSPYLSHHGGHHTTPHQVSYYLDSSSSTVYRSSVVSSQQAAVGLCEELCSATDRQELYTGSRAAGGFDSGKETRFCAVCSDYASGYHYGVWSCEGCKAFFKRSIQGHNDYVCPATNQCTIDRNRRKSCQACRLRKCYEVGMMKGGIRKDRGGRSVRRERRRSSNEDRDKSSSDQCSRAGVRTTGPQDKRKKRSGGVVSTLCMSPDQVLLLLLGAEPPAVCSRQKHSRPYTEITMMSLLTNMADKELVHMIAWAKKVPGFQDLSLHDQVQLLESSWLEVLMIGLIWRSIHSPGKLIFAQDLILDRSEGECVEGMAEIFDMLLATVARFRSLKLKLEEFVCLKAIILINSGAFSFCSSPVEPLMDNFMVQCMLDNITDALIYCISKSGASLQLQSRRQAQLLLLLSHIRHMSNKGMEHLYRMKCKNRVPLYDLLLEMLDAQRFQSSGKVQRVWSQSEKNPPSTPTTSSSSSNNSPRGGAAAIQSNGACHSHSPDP

The target of experiment [2] is zfERβ2 (Esr2a) (Danio rerio, UniProt Q7ZU32).
Sequence of zfERβ2 (Esr2a) (Q7ZU32 1-553): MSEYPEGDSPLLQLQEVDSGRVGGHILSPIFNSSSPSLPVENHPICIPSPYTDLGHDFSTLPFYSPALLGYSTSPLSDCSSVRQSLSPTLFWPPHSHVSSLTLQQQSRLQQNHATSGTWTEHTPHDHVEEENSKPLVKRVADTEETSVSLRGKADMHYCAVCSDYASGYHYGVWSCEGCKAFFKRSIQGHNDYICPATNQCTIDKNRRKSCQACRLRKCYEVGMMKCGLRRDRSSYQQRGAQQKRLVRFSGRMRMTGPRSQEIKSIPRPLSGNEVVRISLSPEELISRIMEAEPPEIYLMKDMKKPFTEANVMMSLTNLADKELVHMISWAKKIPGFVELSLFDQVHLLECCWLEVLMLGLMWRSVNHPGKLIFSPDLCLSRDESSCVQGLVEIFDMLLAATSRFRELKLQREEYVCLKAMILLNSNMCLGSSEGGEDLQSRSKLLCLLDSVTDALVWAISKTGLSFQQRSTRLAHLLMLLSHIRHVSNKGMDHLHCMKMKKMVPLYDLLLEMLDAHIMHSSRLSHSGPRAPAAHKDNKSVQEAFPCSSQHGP
Experiment [3] addresses T2, zfERβ1 (Esr2b) (Danio rerio, UniProt Q5PR29).
T2 sequence (Q5PR29 1-592): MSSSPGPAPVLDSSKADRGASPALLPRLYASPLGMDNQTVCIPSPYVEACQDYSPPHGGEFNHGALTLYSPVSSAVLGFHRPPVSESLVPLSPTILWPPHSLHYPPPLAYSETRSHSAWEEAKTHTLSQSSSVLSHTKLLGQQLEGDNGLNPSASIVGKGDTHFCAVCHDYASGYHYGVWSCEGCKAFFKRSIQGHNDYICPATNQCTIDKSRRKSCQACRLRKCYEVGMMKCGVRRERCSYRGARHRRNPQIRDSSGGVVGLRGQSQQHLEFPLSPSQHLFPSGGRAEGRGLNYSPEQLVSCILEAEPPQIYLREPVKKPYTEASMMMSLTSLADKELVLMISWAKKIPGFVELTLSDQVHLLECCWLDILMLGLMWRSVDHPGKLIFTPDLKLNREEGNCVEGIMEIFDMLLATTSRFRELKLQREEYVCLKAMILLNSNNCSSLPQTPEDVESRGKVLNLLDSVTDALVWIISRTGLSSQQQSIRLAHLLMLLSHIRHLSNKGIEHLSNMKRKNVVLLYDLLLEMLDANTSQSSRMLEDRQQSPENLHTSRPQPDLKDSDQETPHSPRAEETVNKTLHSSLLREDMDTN

Regarding `Oc1ccc(C(c2ccc(O)cc2)(C(F)(F)F)C(F)(F)F)cc1` [BPAF], the EC50 in experiment [1] (read-out: zfERα, agonist mode, 16 h, 28°C) worked out at 0.084 ± 0.027 µM; in experiment [2] (read-out: zfERβ2, agonist mode, 16 h, 28°C), 0.897 ± 0.268 µM; in experiment [3] (read-out: zfERβ1, agonist mode, 16 h, 28°C), 0.758 ± 0.131 µM.

As to `CC(C)(c1ccc(O)cc1)c1ccc(O)cc1` [BPA], the values for the EC50 in experiment [1], in experiment [2] and in experiment [3] were 0.469 ± 0.042 µM, 2.8 ± 0.562 µM and 3.33 ± 0.381 µM, respectively.

With `C[C@]12CC[C@@H]3c4ccc(O)cc4CC[C@H]3[C@@H]1C[C@H]1OC(=O)C[C@]12O` [16α-LE2, 3,17-Dihydroxy-19-nor-17α-pregna-1,3,5(10)-triene-21,16α-lactone], the EC50 came out at 0.00065 ± 0.0001 µM in experiment [1], 0.0695 ± 0.0175 µM in experiment [2] and 0.271 ± 0.045 µM in experiment [3].
